In PubChem BioAssay (NCI):
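Results reflect a 48-hour exposure of cells in 96-well plates to compound at five concentrations. TGI marks complete inhibition of growth.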

Key:
Experiment in all cases: NCI anticancer screen, dose series, 48 h
CAKI-1 renal = test system: CAKI-1 renal
CCRF-CEM leukemia = test system: CCRF-CEM leukemia
M14 melanoma = test system: M14 melanoma
MDA-MB-231 breast = test system: MDA-MB-231 breast
MDA-MB-435 = test system: MDA-MB-435
NCI-H460 lung = test system: NCI-H460 lung
OVCAR-8 ovarian = test system: OVCAR-8 ovarian
RPMI-8226 leukemia = test system: RPMI-8226 leukemia
RXF 393 renal = test system: RXF 393 renal
SF-539 CNS = test system: SF-539 CNS
T-47D breast = test system: T-47D breast
TK-10 renal = test system: TK-10 renal
HS 578T breast = test system: HS 578T breast

SMILES	TGI (CAKI-1 renal) [µM]	TGI (CCRF-CEM leukemia) [µM]	TGI (M14 melanoma) [µM]	TGI (MDA-MB-231 breast) [µM]	TGI (MDA-MB-435) [µM]	TGI (NCI-H460 lung) [µM]	TGI (OVCAR-8 ovarian) [µM]	TGI (RPMI-8226 leukemia) [µM]	TGI (RXF 393 renal) [µM]	TGI (SF-539 CNS) [µM]	TGI (T-47D breast) [µM]	TGI (TK-10 renal) [µM]	TGI (HS 578T breast) [µM]
COc1ccc2nc3ccc(OC)cc3c(SCC3CO3)c2c1 (stereo not given)	19.1	> 100	29	28.7	40	31	25.7	74.6	33.5	23.7	43.6	25.8	
CC(C)(C)[Si](C)(C)OCC#C[C@@]1(O)CCCCC1CC(Sc1ccccc1)Sc1ccccc1 (stereo not given in full)	23.2	39.5	35.5	34.7	31.4	34.6	35.1	73.3	27.1		25.5	31.8	
Cc1cc(C)c(NS(=O)c2cccc(Cl)c2)c(C)c1 (stereo not given)		> 100	> 100		> 100	> 100	> 100	> 100	> 100	> 100		> 100	
COc1cccc(C[C@H]2COC(=O)[C@]2(O)Cc2cccc(OC)c2)c1	> 100	> 100	> 100	> 100	> 100	> 100	> 100	> 100		> 100	67.9	> 100	> 100
COC(=O)CCC(C)C1CCC2C3CCC4CC5CCC4(C)C3(O5)C(Br)C(Br)C12C (stereo not given)	> 100		> 100	> 100	> 100	> 100	> 100	> 100	> 100	> 100	> 100	> 100	> 100
O=C(CC(C(=O)c1cccs1)c1ccsc1)c1ccco1 (stereo not given)	77.3	50.1	43.5		40.6	81.9	> 100	> 100	49.7	98.2	80.3	> 100	47
ClCc1ccc2ccc3ccc(CCl)nc3c2n1		8.64				19.6		13.1	3.17	5.85			
COc1cc(C2c3cc4c(cc3OC(NCc3ccccc3)C2C)OCO4)cc(OC)c1OC (stereo not given)	0.982	26.5	67.1	2.06		> 34.7	> 100	24.2		0.817		> 100	
CN(C)/C=C/c1ccncc1	> 100	> 100	> 100	> 100	> 100	> 100	> 100	> 100	> 100	> 100	> 100	> 100	
[C-]#[N+]C1(C(=O)OCC)CC1		> 100	> 100		> 100	> 100	> 100	> 100	> 100	> 100	> 100	> 100	> 100
